For assay [1], the system named is GeneBank No. 170665. In words: Gene expression analysis (oligonucleotide microarray) in rat primary nerve cells under endoplasmic reticulum stress. The class given is cell-based. The conditions noted are these: standardized with the median (=1). How it is done:
Rat primary nerve cells prepared from TP-17 CD rats (Nippon Charles River) were suspended in B27-containing neurobasal medium (NB medium, GIBCO), then put at a density of 250,000 cells/well in a type I collagen-coated 24-well plate (SUMILON), and cultured for 3 days. (i) Tunicamycin (Tnc) was added at a final concentration of 100 nM to the cultured cells, (ii) thapsigargin (Thap) was added at a final concentration of 2 nM to the cultured cells, or (iii) after the medium was exchanged twice with glucose-free B27-containing DMEM medium, 2-deoxyglucose (2DG) was added at a concentration of 3 mM to the cultured cells. After 4, 8, and 24 hours, total RNA was extracted from the respective cells by using RNeasy Mini Kit (Qiagen) according to its instructions. As the control, the cells to which each medium was added in place of the above chemicals (Tnc, Thap and 2DG) (cells to which no chemical was added) were used. These were used as the material to conduct gene expression analysis using an oligonucleotide microarray (Rat Genome U34A, Affymetrix).
The experimental method was in accordance with instructions of Affymetrix (Expression analysis technical manual). As a result of comparison of gene expression profiles of the cells stimulated with each chemical and the cells to which no chemical was added, the expression of GeneBank No. 170665 was promoted by endoplasmic reticulum stress stimulation [the above (i), (ii) and (iii)] (Table 1).

Assay [2] relates to GeneBank No. 170665. In words: Gene expression analysis (oligonucleotide microarray) in rat primary nerve cells stimulated with β-amyloid. It counts as cell-based. The following applies: β-amyloid 25 nM, standardized with the median (=1). How it is done: For the purpose of examining whether the expression of GeneBank No. 170665 whose expression was promoted by endoplasmic reticulum stress was influenced by β-amyloid stimulation, gene expression analysis was conducted using the cells stimulated with β-amyloid in the same manner as in Example 1.
Rat primary nerve cells prepared in the same manner as in Example 1 were suspended in N2-containing DMEM medium (GIBCO), then put at a density of 250,000 cells/well and cultured for 4 days. After culture, β-amyloid suspended at a final concentration of 25 nM in the above medium was added to the cells. After 4, 8, and 24 hours, total RNA was extracted from the cells and gene analysis was conducted in the same manner as in Example 1. As the control, the cells to which the above medium was added in place of β-amyloid were used. The expression of GeneBank No. 170665 was promoted in the cells stimulated with β-amyloid, as compared with the control (Table 2).

The next assay deals with SK-N-AS cells. In words: DNA cleavage accompanying tunicamycin-induced cell-death (CELL DEATH DETECTION ELISA PLUS) in transformed cells. It counts as cell-based, human. The following applies: SK-N-AS cells transformed with the C1 gene vs pcDNA3.1 control cells; tunicamycin for 1 or 2 days. How it is done:
A plasmid comprising the nucleotide sequence represented by SEQ ID NO:2 was designated C1-pcDNA3.1/V5-His TOPO, and a transformant having the plasmid was designated Escherichia coli DH5α/C1-pcDNA3.1N5-His TOPO. This transformant was cultured in LB medium, and the vector was recovered by using QUAGEN plasmid midi kit (Qiagen). This C1 gene expression vector was transformed into SK-N-AS cells by using Nucleofector (AMAXA). As the control, pcDNA3.1 (Invitrogen) was transformed into SK-N-AS cells.
The respective transformed cells were put at a density of 7500 cells/well in a type I collagen-coated 96-well plate (IWAKI) and then cultured overnight, and after tunicamycin was added at various concentrations, the cells were cultured for 1 or 2 days to induce cell-death. After culture, DNA cleavage accompanying cell-death was detected by using CELL DEATH DETECTION ELISA^PLUS kit (Roche). The experimental method was in accordance with instructions attached to the kit.

A further assay deals with IMR-32 cells. Kind of assay: Aβ40 and Aβ42 concentration in culture supernatant of transformed cells by ELISA. It counts as cell-based. The conditions noted are these: IMR-32 cells transformed with C1 vs GFP control cells; 24 hours after medium exchange. The method, then: The C1 gene expression vector described in Example 4 was transformed into IMR-32 cells by using Nucleofector (AMAXA). As the control, a GFP gene expression vector (Wako) was transformed into other IMR-32 cells. The respective transformed cells were put at a density of 1,000,000 cells/well in a type I collagen-coated 24-well plate (IWAKI) and cultured for 16 hours. After the medium was exchanged with a new one, the cells were cultured for additional 24 hours, and the concentrations of Aβ40 and Aβ42 in the culture supernatant were measured respectively by ELISA (Biochemistry 34, 10272-10278, 1995).
(In an ELISA, binding on a coated surface is turned into a signal by an enzyme label.)

For the molecule `O=CC[C@@H](O)[C@H](O)[C@H](O)CO` [2DG, 2-deoxyglucose], the Gene expression level with GeneBank No. 170665 [1] (2DG 3 mM in glucose-free DMEM medium, after 4 hours) is given as 16.71; with GeneBank No. 170665 [1] (2DG 3 mM in glucose-free DMEM medium, after 8 hours), 15.11; with GeneBank No. 170665 [1] (2DG 3 mM in glucose-free DMEM medium, after 24 hours) it was 14.55.
For `C/C=C(/C)C(=O)O[C@H]1C(C)=C2[C@H]([C@@H]1OC(=O)CCCCCCC)[C@@](C)(OC(C)=O)C[C@H](OC(=O)CCC)[C@@]1(O)[C@H]2OC(=O)[C@@]1(C)O` [thapsigargin], the Gene expression level in the assay on GeneBank No. 170665 [1] (thapsigargin 2 nM, after 4 hours) was found to be 8.77; in the assay on GeneBank No. 170665 [1] (thapsigargin 2 nM, after 8 hours), 9.65; in the assay on GeneBank No. 170665 [1] (thapsigargin 2 nM, after 24 hours), 7.56.
As for tunicamycin, the Gene expression level in the assay with GeneBank No. 170665 [1] (tunicamycin 100 nM, after 4 hours) was 3.00; in the assay on GeneBank No. 170665 [1] (tunicamycin 100 nM, after 8 hours), 2.81; in the assay with GeneBank No. 170665 [1] (tunicamycin 100 nM, after 24 hours), 3.63.
In the case of β-amyloid, the Gene expression level was 3.44 in the assay with GeneBank No. 170665 [2] (after 4 hours), 6.99 in the assay with GeneBank No. 170665 [2] (after 8 hours) and 4.40 with GeneBank No. 170665 [2] (after 24 hours).

B1: C1: 264-amino-acid protein (SEQ ID NO: 1) encoded by SEQ ID NO:2; tested by transforming cells with C1 gene expression vector (protein, listed as Homo sapiens)
chain: MGGAQLELPSGARPGVCVRRSFRAHAGDQPRRPPGPIPVPGTMKQESAAPNTPPTSQSPTPSAQFPRNDGDPQALWIFGYGSLVWRPDFAYSDSRVGFVRGYSRRFWQGDTFHRGSDKMPGRVVTLLEDHEGCTWGVAYQVQGEQVSKALKYLNVREAVLGGYDTKEVTFYPQDAPDQPLKALAYVATPQNPGYLGPAPEEAIATQILACRGFSGHNLEYLLRLADFMQLCGPQAQDEHLAAIVDAVGTMLPCFCPTEQALALV
B1: the “DNA cleavage (cell-death)” value in the assay on SK-N-AS cells is given as “promoted”. For the same molecule, in the assay with IMR-32 cells, the “Aβ40 concentration in culture supernatant” value was “reduced” and the “Aβ42 concentration in culture supernatant” value is recorded as “reduced”.

(Values after patent US20060148692A1, “Novel protein and its dna” (priority 2003, published 2006).)
